This note sets out measurements from ChEMBL document CHEMBL3882724 (2013).

The structures appear in SMILES notation.

The target of data set [1] is T1, CYP21 (steroid 21-hydroxylase) (Homo sapiens, UniProt P08686).
T1 sequence (P08686 whole entry): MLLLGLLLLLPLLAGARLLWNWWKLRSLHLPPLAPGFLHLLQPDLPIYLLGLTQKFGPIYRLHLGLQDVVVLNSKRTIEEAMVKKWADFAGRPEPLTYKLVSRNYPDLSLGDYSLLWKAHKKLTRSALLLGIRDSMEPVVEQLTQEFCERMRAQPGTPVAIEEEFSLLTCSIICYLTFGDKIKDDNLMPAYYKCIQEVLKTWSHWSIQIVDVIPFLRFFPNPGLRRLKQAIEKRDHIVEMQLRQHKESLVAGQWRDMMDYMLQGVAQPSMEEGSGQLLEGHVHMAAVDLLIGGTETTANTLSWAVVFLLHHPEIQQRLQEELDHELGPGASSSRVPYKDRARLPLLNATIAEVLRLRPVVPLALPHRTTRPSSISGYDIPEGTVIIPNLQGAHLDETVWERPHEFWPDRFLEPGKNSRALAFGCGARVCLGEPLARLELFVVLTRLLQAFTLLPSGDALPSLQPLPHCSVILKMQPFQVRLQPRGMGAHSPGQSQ
The experiment in a line: Inhibition of human CYP21 transfected in HEK293 cells assessed as decrease in conversion of progesterone to 11-deoxycorticosterone preincubated for 5 hrs followed by progesterone addition measured after 20 hrs by ELISA. It is filed as cell-based. More on the design: concentration or dose not given beside the values. To be noted: HEK293 cells transfected with human CYP21, probe progesterone. On the technique in general: In an ELISA, binding on a coated surface is turned into a signal by an enzyme label.

For data set [2], the target named is T2, Steroid 17-alpha-hydroxylase/17,20 lyase (Homo sapiens, UniProt P05093).
T2 sequence (P05093 whole entry): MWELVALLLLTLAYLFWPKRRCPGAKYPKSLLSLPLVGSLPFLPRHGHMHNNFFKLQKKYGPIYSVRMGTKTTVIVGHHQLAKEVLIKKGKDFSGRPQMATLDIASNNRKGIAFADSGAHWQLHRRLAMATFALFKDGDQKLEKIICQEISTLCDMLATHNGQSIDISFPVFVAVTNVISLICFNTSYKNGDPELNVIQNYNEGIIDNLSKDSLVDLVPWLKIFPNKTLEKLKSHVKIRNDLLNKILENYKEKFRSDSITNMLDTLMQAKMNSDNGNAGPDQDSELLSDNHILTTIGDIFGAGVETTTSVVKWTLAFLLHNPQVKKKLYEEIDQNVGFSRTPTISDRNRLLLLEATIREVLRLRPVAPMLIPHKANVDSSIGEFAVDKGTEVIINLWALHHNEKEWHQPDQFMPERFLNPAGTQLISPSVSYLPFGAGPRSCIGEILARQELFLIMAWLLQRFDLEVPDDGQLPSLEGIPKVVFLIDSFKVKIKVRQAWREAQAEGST
The experiment in a line: Inhibition of CYP17 in human testicular microsomes using 17alpha-hydroxypregnenolone as substrate assessed as decrease in DHEA levels after 90 mins by ELISA. More on the design: species or system Testis.

As usually defined, the inhibition is how much of the control response was suppressed. In the case of `CC1C[C@H]2C3=CC=C(c4ccc(F)nc4)[C@@]3(C)CC[C@@H]2[C@@]2(C)CCNC(=O)C=C12` (stereo partly drawn), the inhibition at 20 h in data set [1] lay in the range of 10 to 50%.
Same read-out and setting: then `C[C@]12CC(O)CC1CC[C@@H]1[C@@H]2CC[C@]2(C)C(c3cncc(Cl)c3)=CC[C@@H]12` (stereo partly drawn), with 10 to 50%.
The IC50 is the midpoint of a concentration-inhibition curve. `C[C@]12CCC(=O)CC1C(=O)C[C@@H]1[C@@H]2CC[C@]2(C)C(c3cncc(F)c3)=CC[C@@H]12` (stereo partly drawn): the IC50 in data set [2] is not above 11 nM. For the same molecule, the inhibition at 20 h in data set [1] was not below 50%.
`CC(=O)N(C)[C@H]1CC[C@@]2(C)C(CC[C@@H]3[C@@H]2CC[C@]2(C)C(c4cncc(C)c4)=CC[C@@H]32)C1` (stereo partly drawn): in data set [1], the inhibition at 20 h lay within 10 to 50%.
The same measure, in the same setting: then `COC1CC[C@@]2(C)C(=CC[C@@H]3[C@@H]2CC[C@]2(C)C(c4cccnc4)=CC[C@@H]32)C1` (stereo partly drawn), with less than 10%; and `C[C@]12CC[C@H](O)CC1=CC[C@@H]1[C@@H]2CC[C@]2(C)C(c3cncc(NS(=O)(=O)C(F)(F)F)c3)=CC[C@@H]12`, with less than 10%.
Same read-out and setting: for `CC1C[C@H]2C3=CC=C(c4cncc(C(F)F)c4)[C@@]3(C)CC[C@@H]2[C@@]2(C)CCNC(=O)C=C12` (stereo partly drawn) the value was less than 10%; for `CCOc1cncc(C2=CC[C@H]3[C@@H]4CC[C@H]5C[C@@H](OC)CC[C@]5(C)[C@H]4CC[C@]23C)c1`, 10 to 50%.
The same measure, in the same setting: then `C[C@]12CCC3(CO3)CC1CCC1C2CC[C@]2(C)C(c3cccnc3)=CCC12` (stereo partly drawn), with 10 to 50%.
As for `C[C@]12CC[C@@](O)(C3CC3)CC1CC[C@@H]1[C@@H]2CC[C@]2(C)C(c3cccnc3)=CC[C@@H]12` (stereo partly drawn), the inhibition at 20 h in data set [1] was in the range of 10 to 50%.
The same measure, in the same setting: then `C[C@]12CC[C@H]3[C@@H](CCC4=CC(=O)CC[C@@]43C)C1=CC=C2c1ccc(F)nc1`, with 10 to 50%.
On the same count and under the same terms, then `CCNC(=O)NC1CC[C@@]2(C)C(CC[C@@H]3[C@@H]2CC[C@]2(C)C(c4cccnc4)=CC[C@@H]32)C1C` (stereo partly drawn), with less than 10%; and `C[C@]12CCNC(=O)CC1CCC1C2CC[C@]2(C)C(c3cncc(C(F)F)c3)=CCC12` (stereo partly drawn), with not below 50%.
For `CC1(C)C(=O)CC[C@@]2(C)C1=CC[C@@H]1[C@@H]2CC[C@]2(C)C(c3cccnc3)=CC[C@@H]12`, in data set [1], the inhibition at 20 h is less than 10%.
For the molecule `CO[C@H]1CC[C@@]2(C)C(=CC[C@@H]3[C@@H]2CC[C@]2(C)C(n4ccnc4)=CC[C@@H]32)C1`, the inhibition at 20 h in data set [1] lay in the range of 10 to 50%.
As to `CC1C(O)CC[C@@]2(C)C1CC[C@@H]1[C@@H]2CC[C@]2(C)C(c3cncc(C(F)F)c3)=CC[C@@H]12` (stereo partly drawn), in data set [1], the inhibition at 20 h is less than 10%.
Same read-out and setting: then `CC(CO)(CO)C(=O)O[C@H]1CC[C@@]2(C)C(=CC[C@H]3C4=CC=C(c5cccnc5)[C@@]4(C)CC[C@@H]32)C1`, with less than 10%; and `Cc1cnc(F)c(C2=CC[C@H]3[C@@H]4CC=C5C[C@@H](O)CC[C@]5(C)[C@H]4CC[C@]23C)c1`, with 10 to 50%.
Still for that read-out and setting: for `CC(C)(C)C(=O)N[C@@H]1CC[C@@]2(C)C(CC[C@@H]3[C@@H]2CC[C@]2(C)C(c4cccnc4)=CC[C@@H]32)C1` (stereo partly drawn) the value was 10 to 50%; for `CCc1ccncc1C1=CC=C2[C@@H]3CCC4CC(=O)NCC[C@]4(C)[C@H]3CC[C@]12C` (stereo partly drawn), 10 to 50%.
As to `C[C@]12CC[C@H]3[C@@H](CCC4=CC(=O)NCC[C@@]43C)C1=CC=C2c1cncc(C(F)F)c1`, in data set [2], the half-maximal inhibitory concentration (IC50) was not above 11 nM. Moreover, the inhibition at 20 h in data set [1] was not below 50%.
As to `CC1C(=O)CC[C@@]2(C)C1CC[C@@H]1[C@@H]2CC[C@]2(C)C(c3cccnc3)=CC[C@@H]12` (stereo partly drawn), the inhibition at 20 h in data set [1] is 10 to 50%.
With `CC(=O)O[C@H]1CC[C@@]2(C)C(CC[C@H]3C4=CC=C(c5cnccc5C)[C@@]4(C)CC[C@@H]32)C1` (stereo partly drawn), the inhibition at 20 h in data set [1] lay within 10 to 50%.
On the same count and under the same terms, then `CC(=O)N(C)[C@H]1CC[C@@]2(C)C(CC[C@@H]3[C@@H]2CC[C@]2(C)C(c4cccnc4)=CC[C@@H]32)C1` (stereo partly drawn), with 10 to 50%.
Still for that read-out and setting: for `C[C@]12CC[C@H](O)CC1CC[C@@H]1[C@@H]2CC[C@]2(C)C(c3cccnc3)CC[C@@H]12` (stereo partly drawn) the value was less than 10%.
Turning to `C[C@]12CC[C@H]3[C@@H](CCC4CC(F)(F)CC[C@@]43C)C1=CC=C2c1cccnc1` (stereo partly drawn), the half-maximal inhibitory concentration (IC50) in data set [2] is not above 11 nM.
With `Cc1ccncc1C1=CC=C2[C@@H]3CC[C@H]4CNC(=O)CC[C@]4(C)[C@H]3CC[C@]12C`, the inhibition at 20 h in data set [1] fell in the range of 10 to 50%.
In the case of `C[C@]12CCC(F)(F)CC1CC[C@@H]1[C@@H]2CC[C@]2(C)C(c3cccnc3)=CC[C@@H]12` (stereo partly drawn), in data set [2], the IC50 was not above 11 nM.
Same read-out and setting: for `C[C@]12CC[C@H]3[C@@H](CCC4=CC(=O)CC[C@@]43C)C1=CC=C2c1cncc(N)c1` the value was not above 11 nM.
Consider `C[C@@]1(O)CC[C@@]2(C)C(=CC[C@@H]3[C@@H]2CC[C@]2(C)C(c4cccnc4)=CC[C@@H]32)C1`, for which, in data set [1], the inhibition at 20 h is not below 50%.
On the same count and under the same terms, for `COC(=O)c1cncn1C1=CC[C@H]2[C@@H]3CC=C4C[C@@H](O)CC[C@]4(C)[C@H]3CC[C@]12C` the value was 10 to 50%; for `C[C@]12CC/C(=N\O)C=C1C(F)C[C@@H]1[C@@H]2CC[C@]2(C)C(c3cccnc3)=CC[C@@H]12` (stereo partly drawn), 10 to 50%.
As for `CC(=O)O[C@H]1CC[C@@]2(C)C(=CC[C@H]3C4=CC=C(n5ccnc5)[C@@]4(C)CC[C@@H]32)C1`, in data set [2], the half-maximal inhibitory concentration (IC50) is not above 11 nM.
Regarding `C[C@]12CCC(=O)C=C1C(n1ccnn1)C[C@@H]1[C@@H]2CC[C@]2(C)C(c3cccnc3)=CC[C@@H]12` (stereo partly drawn), the inhibition at 20 h in data set [1] fell in the range of 10 to 50%.
In the case of `CC1=C2CC[C@@H]3[C@H](CC[C@]4(C)C(c5cccnc5)=CC[C@@H]34)[C@@]2(C)CCC1O` (stereo partly drawn), in data set [2], the IC50 is not above 11 nM. In addition, the inhibition at 20 h in data set [1] is 10 to 50%.
Regarding `CC1=C2CC[C@H]3C4=CC=C(c5cccnc5)[C@@]4(C)CC[C@@H]3[C@@]2(C)CCC1O` (stereo partly drawn), the half-maximal inhibitory concentration (IC50) in data set [2] is not above 11 nM.
Turning to `Cc1cncc(C2=CC=C3[C@@H]4CCC5CC(=O)NCC[C@]5(C)[C@H]4CC[C@]23C)c1` (stereo partly drawn), the IC50 in data set [2] was not above 11 nM. In data set [1], the inhibition at 20 h was not below 50%.
On to `C[C@]12CC[C@H](O)CC1CC[C@@H]1[C@@H]2CC[C@]2(C)C(c3ccc[n+]([O-])c3)CC[C@@H]12` (stereo partly drawn), for which the inhibition at 20 h in data set [1] lay within 10 to 50%.
Same read-out and setting: for `C[C@@]1(O)CC[C@@]2(C)C(CCC3C4=CC=C(c5cccnc5)[C@@]4(C)CC[C@@H]32)C1` (single isomer, unassigned) the value was less than 10%; for `CC1(O)CC2CC[C@@H]3C(CC[C@]4(C)C(c5cccnc5)=CC[C@@H]34)[C@@]2(C)C1` (single isomer, unassigned), 10 to 50%.
On the same count and under the same terms, for `C[C@]12CC[C@@H](NS(C)(=O)=O)CC1=CC[C@H]1C3CC=C(c4cccnc4)[C@@]3(C)CC[C@@H]12` (single isomer, unassigned) the value was 10 to 50%; for `C[C@]12CCC(N)CC1CC[C@@H]1[C@@H]2CC[C@]2(C)C(c3cccnc3)=CC[C@@H]12` (single isomer, unassigned), 10 to 50%.
On the same count and under the same terms, for `C#CC1(O)CC[C@@]2(C)C(CC[C@@H]3[C@@H]2CC[C@]2(C)C(c4cccnc4)=CC[C@@H]32)C1` (single isomer, unassigned) the value was 10 to 50%; for `CNC1CC[C@@]2(C)C(CCC3[C@@H]2CC[C@]2(C)C(c4cncc(C)c4)=CC[C@@H]32)C1` (single isomer, unassigned), 10 to 50%.
